The values below come from US4532367A, “Antimicrobially effective derivatives of phenol and methods for their production” (VEB Jenapharm, priority 1981, dated 1985).

One data set in a line: Solubility in water. The following applies: in words. Type of data set: physicochemical.
Another data set deals with Gram-Positive Bacteria. The data set is described as follows: Effectiveness against gram-positive bacteria (general statement). Type of data set: cell-based. The following applies: in words.
A further data set in a line: Stability. The following applies: in words. The format is physicochemical.
The conditions of data set [1]: known compound, background statement; cited from earlier work.
Data set [2] can be described thus: Acute toxicity in white mice with subcutaneous application. The following applies: mouse, in vivo, sc. An excerpt:
*The toxicity in mg/kg body weight is understood as acute toxicity in
white mice with subcutaneous application.

The conditions of data set [3]: known compound, background statement; cited from earlier work. This is another data set of the same source.
A further data set has as its system antimicrobial. The following applies: known compound, background statement; cited from earlier work.

As a reminder, the LD50 is the dose at which mortality reaches 50%. A lower LD50 goes with a more toxic substance.

Where a name gives a salt, the structure may show the parent alone.

Consider `Cc1cc(Cc2ccccc2)cc(Cl)c1O` [calcium salt of 2-chloro-6-methyl-4-benzylphenol] [calcium salt of 6-chloro-2-methyl-4-benzylphenol], for which the solubility in water entry in “Solubility in water” was “only little soluble in water”. For the same compound, in the data set with Gram-Positive Bacteria, the “effectiveness against gram-positive bacteria” value is given as “particularly effective”. Further, the stability entry in the data set “Stability” is listed as “very stable”.

On to `Cc1cc(Cc2ccccc2)cc(Cl)c1O` [potassium salt of 6-chloro-2-methyl-4-benzylphenol], for which, in the data set “Solubility in water”, the solubility in water entry was “good”. On to `Cc1cc(Cc2ccccc2)cc(Cl)c1O` [2-chloro-6-methyl-4-benzylphenol], for which the water-solubility result in data set [1] is recorded as “difficult water-solubility”. The LD50 in data set [2] was determined as 1200 mg/kg. Also, in data set [3], the skin compatibility result is listed as “well skin-compatible”. Moreover, in the data set on antimicrobial, the antimicrobial efficacy result is “generally good antimicrobial efficacy”.

As for `Cc1cc(Cc2ccccc2)cc(Br)c1O` [2-bromo-6-methyl-4-benzylphenol, 6-bromo-2-methyl-4-benzylphenol], the LD50 in data set [2] worked out at 1500 mg/kg.

Turning to `Cc1cc(Cc2ccccc2)cc(Cl)c1O` [sodium salt of 6-chloro-2-methyl-4-benzylphenol], the solubility in water entry in “Solubility in water” was “well water-soluble”. Take `CCc1cc(Cc2ccccc2)cc(Br)c1O` [2-bromo-6-ethyl-4-benzylphenol, 6-bromo-2-ethyl-4-benzylphenol]: the LD50 in data set [2] is 2800 mg/kg.
